Source: patent US11000033B2, “Ketone or oxime compound, and herbicide” (NISSAN CHEMICAL CORPORATION, priority 2014, dated 2021)

Experiments:
Type in all cases: in vivo
[1] = system: Echinochloa oryzacola Vasing.; test: Test Example 1: herbicidal activity, application before weed generation in submerged conditions (symbol A); settings: application herbicide amount 320 g/ha
Method in brief: (§1)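 0–5 visual score, 3 wk post-application. Submerged pots, alluvial soil, water 4 cm; seeds sown mixed, rice at 2.5 leaves transplanted. Emulsion diluted to predetermined dose, applied to water surface at sowing. 25–30 °C greenhouse.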

[2] = system: Scirpus juncoides; test: Test Example 1: herbicidal activity, application before weed generation in submerged conditions (symbol B); settings: application herbicide amount 320 g/ha
Method in brief: as §1

[3] = system: transplanted rice plant; test: Test Example 1: effect on crop, application before weed generation in submerged conditions (symbol a); settings: application herbicide amount 320 g/ha
Method in brief: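 Alluvial soil pots flooded to 4 cm water, sown with Echinochloa oryzacola, Scirpus juncoides and Monochoria vaginalis, then transplanted with 2.5 leaf stage rice seedlings; pre-emergence application. Greenhouse 25° C. to 30° C.; scored 0–5 by herbicidal ratio 3 weeks after application.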

[4] = system: Monochoria vaginalis; test: Test Example 2: herbicidal activity, application during weed generation in submerged conditions (symbol C); settings: Table 23; application herbicide amount 320 g/ha; grade 0-5 by criteria of Test Example 1
Method in brief: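 Scoring of herbicidal effect took place 3 weeks after treatment, using the criteria of the earlier test. Treatment was water-surface application of diluted emulsifiable compound at a set dose. Plants were at one- to two-leaf stage in submerged alluvial soil (4 cm depth), greenhouse 25-30° C.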

[5] = system: directly sowed rice plant; test: Test Example 3: effect on crop by foliage application, Wagner pot (symbol b); settings: application herbicide amount 320 g/ha
Method in brief: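 Steps: fill a 1/10000-are Wagner pot with alluvial soil; add water and mix to submerge at 0.1–0.5 cm depth; sow rice plus Echinochloa crus-galli var. crus-galli, Leptochloa chinensis and Cyperus difformis; grow in a 25–30 °C greenhouse.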

[6] = system: Avena fatua; test: Test Example 4: herbicidal effect by soil treatment (symbol I)
Method in brief: (§2)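 Seeds were sown in sterilized diluvial soil, covered with about 1.5 cm of soil, and the soil surface was sprayed with a water-diluted emulsion of the compound at a predetermined rate. Plants grew in a greenhouse at 25° C. to 30° C.; effects were scored visually 3 weeks after application.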

[7] = system: Alopecurus myosuroides; test: Test Example 4: herbicidal effect by soil treatment (symbol J)
Method in brief: as §2

[8] = system: Abutilon theophrasti; test: Test Example 4: herbicidal effect by soil treatment (symbol M)
Method in brief: as §2

[9] = system: Amaranthus retroflexus; test: Test Example 4: herbicidal effect by soil treatment (symbol N)
Method in brief: as §2

[10] = system: Veronica persica; test: Test Example 4: herbicidal effect by soil treatment (symbol R)
Method in brief: as §2

[11] = system: soybean; test: Test Example 4: effect on crop by soil treatment (symbol d); settings: for d: soybean, effect grade on crop: 320 g/ha
Method in brief: (§3)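 The test used sterilized diluvial soil. Seed was set down in spots and overlaid with about 1.5 cm of soil before growth in a greenhouse kept at 25° C. to 30° C.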

[12] = system: beet; test: Test Example 4: effect on crop by soil treatment (symbol f); settings: for f: beet, effect grade on crop: 320 g/ha
Method in brief: as §3

[13] = system: rapeseed; test: Test Example 4: effect on crop by soil treatment (symbol g); settings: for g: rapeseed, effect grade on crop: 320 g/ha
Method in brief: as §3

[14] = system: Digitaria ciliaris; test: Test Example 5: herbicidal effect by foliage application, plastic box (symbol F); settings: 320 g/ha, 3 weeks after application
Method in brief: (§4)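 Sowing in sterilized diluvial soil, 14 days' greenhouse growth at 25° C. to 30° C., then uniform small-sprayer foliar application of aqueous emulsion dilution; plants scored three weeks afterwards.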

[15] = system: Echinochloa crus-galli var. crus-galli; test: Test Example 5: herbicidal effect by foliage application, plastic box (symbol H); settings: 320 g/ha, 3 weeks after application
Method in brief: as §4

[16] = application herbicide amount 320 g/ha

## CON=C(C)CC1CC(OC(=O)OCc2ccccc2)=C(c2c(C)cc(C)cc2C)C1=O (stereo not drawn) [1-145]
[1]
  Herbicidal effect grade, A: Echinochloa oryzacola Vasing.: 5 (Herbicidal ratio of 90% or more (almost completely withered))
[2]
  Herbicidal effect grade, B: Scirpus juncoides: 5 (Herbicidal ratio of 90% or more (almost completely withered))
[3]
  Effect grade on crop, a: transplanted rice plant: 5 (Herbicidal ratio of 90% or more (almost completely withered))
[4]
  Herbicidal effect grade, C: Monochoria vaginalis: 3 (Herbicidal ratio of 40% or higher and lower than 70%)
[5]
  effect on crop b (directly sowed rice plant), grade 0-5: 5 (Herbicidal ratio of 90% or more (almost completely withered))
[6]; 320 g/ha
  I: Avena fatua, herbicidal effect grade: 4 (Herbicidal ratio of 70% or higher and lower than 90%)
[7]; 320 g/ha
  J: Alopecurus myosuroides, herbicidal effect grade: 5 (Herbicidal ratio of 90% or more (almost completely withered))
[8]; 320 g/ha
  M: Abutilon theophrasti, herbicidal effect grade: 4 (Herbicidal ratio of 70% or higher and lower than 90%)
[9]; 320 g/ha
  N: Amaranthus retroflexus, herbicidal effect grade: 4 (Herbicidal ratio of 70% or higher and lower than 90%)
[10]; 320 g/ha
  R: Veronica persica, herbicidal effect grade: 3 (Herbicidal ratio of 40% or higher and lower than 70%)
[11]
  d: soybean, effect grade on crop: 0 (Herbicidal ratio of 5% or lower (almost no effect))
[12]
  f: beet, effect grade on crop: 0 (Herbicidal ratio of 5% or lower (almost no effect))
[13]
  g: rapeseed, effect grade on crop: 4 (Herbicidal ratio of 70% or higher and lower than 90%)
[14]
  F: Digitaria ciliaris, herbicidal effect (criteria 0-5): 5 (Herbicidal ratio of 90% or more (almost completely withered))
[15]
  H: Echinochloa crus-galli var. crus-galli, herbicidal effect (criteria 0-5): 5 (Herbicidal ratio of 90% or more (almost completely withered))

## Cc1cc(C)c(C2=C(O)CC(CC(=O)C3CCCC3)C2=O)c(C)c1 (stereo not drawn) [2-028]
[1]
  Herbicidal effect grade, A: Echinochloa oryzacola Vasing.: 3 (Herbicidal ratio of 40% or higher and lower than 70%)
[2]
  Herbicidal effect grade, B: Scirpus juncoides: 0 (Herbicidal ratio of 5% or lower (almost no effect))
[3]
  Effect grade on crop, a: transplanted rice plant: 3 (Herbicidal ratio of 40% or higher and lower than 70%)
[4]
  Herbicidal effect grade, C: Monochoria vaginalis: 0 (Herbicidal ratio of 5% or lower (almost no effect))
[5]
  effect on crop b (directly sowed rice plant), grade 0-5: 5 (Herbicidal ratio of 90% or more (almost completely withered))
[6]; [16]
  I: Avena fatua, herbicidal effect grade: 0 (Herbicidal ratio of 5% or lower (almost no effect))
[7]; [16]
  J: Alopecurus myosuroides, herbicidal effect grade: 3 (Herbicidal ratio of 40% or higher and lower than 70%)
[8]; [16]
  M: Abutilon theophrasti, herbicidal effect grade: 1 (Herbicidal ratio of 5% or higher and lower than 20%)
[9]; [16]
  N: Amaranthus retroflexus, herbicidal effect grade: 0 (Herbicidal ratio of 5% or lower (almost no effect))
[10]; [16]
  R: Veronica persica, herbicidal effect grade: 0 (Herbicidal ratio of 5% or lower (almost no effect))
[11]; [16]
  d: soybean, effect on crop grade: 0 (Herbicidal ratio of 5% or lower (almost no effect))
[12]; [16]
  f: beet, effect on crop grade: 0 (Herbicidal ratio of 5% or lower (almost no effect))
[13]; [16]
  g: rapeseed, effect on crop grade: 0 (Herbicidal ratio of 5% or lower (almost no effect))
[14]
  F: Digitaria ciliaris, herbicidal effect grade: 2 (Herbicidal ratio of 20% or higher and lower than 40%)
[15]
  H: Echinochloa crus-galli var. crus-galli, herbicidal effect grade: 5 (Herbicidal ratio of 90% or more (almost completely withered))

## CON=C(C)CC1CC(OS(=O)(=O)c2ccc(C)cc2)=C(c2c(C)cc(C)cc2C)C1=O (stereo not drawn) [1-161]
[1]
  Herbicidal effect grade, A: Echinochloa oryzacola Vasing.: 5 (Herbicidal ratio of 90% or more (almost completely withered))
[2]
  Herbicidal effect grade, B: Scirpus juncoides: 4 (Herbicidal ratio of 70% or higher and lower than 90%)
[3]
  Effect grade on crop, a: transplanted rice plant: 4 (Herbicidal ratio of 70% or higher and lower than 90%)
[4]
  Herbicidal effect grade, C: Monochoria vaginalis: 3 (Herbicidal ratio of 40% or higher and lower than 70%)
[5]
  effect on crop b (directly sowed rice plant), grade 0-5: 5 (Herbicidal ratio of 90% or more (almost completely withered))
[6]; 320 g/ha
  I: Avena fatua, herbicidal effect grade: 0 (Herbicidal ratio of 5% or lower (almost no effect))
[7]; 320 g/ha
  J: Alopecurus myosuroides, herbicidal effect grade: 3 (Herbicidal ratio of 40% or higher and lower than 70%)
[8]; 320 g/ha
  M: Abutilon theophrasti, herbicidal effect grade: 0 (Herbicidal ratio of 5% or lower (almost no effect))
[9]; 320 g/ha
  N: Amaranthus retroflexus, herbicidal effect grade: 0 (Herbicidal ratio of 5% or lower (almost no effect))
[10]; 320 g/ha
  R: Veronica persica, herbicidal effect grade: 0 (Herbicidal ratio of 5% or lower (almost no effect))
[11]
  d: soybean, effect grade on crop: 0 (Herbicidal ratio of 5% or lower (almost no effect))
[12]
  f: beet, effect grade on crop: 0 (Herbicidal ratio of 5% or lower (almost no effect))
[13]
  g: rapeseed, effect grade on crop: 2 (Herbicidal ratio of 20% or higher and lower than 40%)
[14]
  F: Digitaria ciliaris, herbicidal effect grade: 4 (Herbicidal ratio of 70% or higher and lower than 90%)
[15]
  H: Echinochloa crus-galli var. crus-galli, herbicidal effect grade: 4 (Herbicidal ratio of 70% or higher and lower than 90%)

## C=CCN(CC=C)C(=O)OC1=C(c2c(C)cc(C)cc2C)C(=O)C(CC(C)=NOC)C1 (stereo not drawn) [1-153]
[1]
  Herbicidal effect grade, A: Echinochloa oryzacola Vasing.: 5 (Herbicidal ratio of 90% or more (almost completely withered))
[2]
  Herbicidal effect grade, B: Scirpus juncoides: 3 (Herbicidal ratio of 40% or higher and lower than 70%)
[3]
  Effect grade on crop, a: transplanted rice plant: 4 (Herbicidal ratio of 70% or higher and lower than 90%)
[4]
  Herbicidal effect grade, C: Monochoria vaginalis: 0 (Herbicidal ratio of 5% or lower (almost no effect))
[5]
  effect on crop b (directly sowed rice plant), grade 0-5: 5 (Herbicidal ratio of 90% or more (almost completely withered))
[6]; 320 g/ha
  I: Avena fatua, herbicidal effect grade: 0 (Herbicidal ratio of 5% or lower (almost no effect))
[7]; 320 g/ha
  J: Alopecurus myosuroides, herbicidal effect grade: 3 (Herbicidal ratio of 40% or higher and lower than 70%)
[8]; 320 g/ha
  M: Abutilon theophrasti, herbicidal effect grade: 0 (Herbicidal ratio of 5% or lower (almost no effect))
[9]; 320 g/ha
  N: Amaranthus retroflexus, herbicidal effect grade: 0 (Herbicidal ratio of 5% or lower (almost no effect))
[10]; 320 g/ha
  R: Veronica persica, herbicidal effect grade: 0 (Herbicidal ratio of 5% or lower (almost no effect))
[11]
  d: soybean, effect grade on crop: 0 (Herbicidal ratio of 5% or lower (almost no effect))
[12]
  f: beet, effect grade on crop: 0 (Herbicidal ratio of 5% or lower (almost no effect))
[13]
  g: rapeseed, effect grade on crop: 0 (Herbicidal ratio of 5% or lower (almost no effect))
[14]
  F: Digitaria ciliaris, herbicidal effect (criteria 0-5): 5 (Herbicidal ratio of 90% or more (almost completely withered))
[15]
  H: Echinochloa crus-galli var. crus-galli, herbicidal effect (criteria 0-5): 5 (Herbicidal ratio of 90% or more (almost completely withered))

## CON=C(C)CC1CC(OC(=O)c2ccccc2)=C(c2c(C)cc(C)cc2C)C1=O (stereo not drawn) [1-010]
[1]
  Herbicidal effect grade, A: Echinochloa oryzacola Vasing.: 5 (Herbicidal ratio of 90% or more (almost completely withered))
[2]
  Herbicidal effect grade, B: Scirpus juncoides: 5 (Herbicidal ratio of 90% or more (almost completely withered))
[3]
  Effect grade on crop, a: transplanted rice plant: 5 (Herbicidal ratio of 90% or more (almost completely withered))
[4]
  Herbicidal effect grade, C: Monochoria vaginalis: 2 (Herbicidal ratio of 20% or higher and lower than 40%)
[5]
  effect on crop b (directly sowed rice plant), grade 0-5: 5 (Herbicidal ratio of 90% or more (almost completely withered))
[6]; [16]
  I (Avena fatua) herbicidal effect grade: 5 (Herbicidal ratio of 90% or more (almost completely withered))
[7]; [16]
  J (Alopecurus myosuroides) herbicidal effect grade: 5 (Herbicidal ratio of 90% or more (almost completely withered))
[8]; [16]
  M (Abutilon theophrasti) herbicidal effect grade: 5 (Herbicidal ratio of 90% or more (almost completely withered))
[9]; [16]
  N (Amaranthus retroflexus) herbicidal effect grade: 5 (Herbicidal ratio of 90% or more (almost completely withered))
[10]; [16]
  R (Veronica persica) herbicidal effect grade: 4 (Herbicidal ratio of 70% or higher and lower than 90%)
[11]; [16]
  d (soybean) effect on crop grade: 4 (Herbicidal ratio of 70% or higher and lower than 90%)
[12]; [16]
  f (beet) effect on crop grade: 4 (Herbicidal ratio of 70% or higher and lower than 90%)
[13]; [16]
  g (rapeseed) effect on crop grade: 4 (Herbicidal ratio of 70% or higher and lower than 90%)
[14]
  F: Digitaria ciliaris, herbicidal effect grade: 5 (Herbicidal ratio of 90% or more (almost completely withered))
[15]
  H: Echinochloa crus-galli var. crus-galli, herbicidal effect grade: 5 (Herbicidal ratio of 90% or more (almost completely withered))
